system: eIF2αK1; assay: not given; conditions: literature reports; cited from earlier work

Compound | inhibition of eIF2αK1 activity
O=c1c(O)c(-c2ccc(O)c(O)c2)oc2cc(O)cc(O)c12 [Quercetin] | ATP-competitive kinase inhibitor of eIF2αK1
C=CC1=C(C)c2cc3[n-]c(cc4[n-]c(cc5nc(cc1n2)C(C)=C5C=C)c(C)c4CCC(=O)O)c(CCC(=O)O)c3C.[Cl-].[Fe+3] [Fe(III)-hemin] | inhibit eIF2αK1 activity
C=CC1=C(C)c2cc3[n-]c(cc4[n-]c(cc5nc(cc1n2)C(C)=C5C=C)c(C)c4CCC(=O)O)c(CCC(=O)O)c3C.[Fe+2] [Fe(II)-heme] | inhibit eIF2αK1 activity
C=CC1=C(C)/C(=C/C2=NC(=C\c3[nH]c(/C=C4\NC(=O)C(C)=C4C=C)c(C)c3CCC(=O)O)/C(CCC(=O)O)=C2C)NC1=O [biliverdin] | inhibit eIF2αK1 activity
uroporphyrin | inhibit eIF2αK1 activity

system: HUDEP-2 expressing Cas9 cells; assay: Combination of eIF2αK1 gRNA and pomalidomide, HbF positive cells; assay type: cell-based, human; conditions: pomalidomide in combination with eIF2αK1 inhibition (eIF2αK1 gRNA #3 or #5); three independent experiments
Procedure: FIG. 3 is a graph of the percentage of cells positive for HbF expression. HUDEP-2 expressing Cas9 cells were transduced with eIF2αK1 sgRNA #3, eIF2αK1 sgRNA #5, a gRNA targeting BCL11A exon 2, or a negative control gRNA. Cells were then incubated with or without pomalidomide. n=3.
Combination experiments with the immunomodulatory pomalidomide, which is an HbF inducer, were also performed. If eIF2αK1 inhibition works at least in part by altering protein translation, additive effects may be observed when using compounds that predominantly affect transcription of fetal globin genes. Briefly, HUDEP-2 expressing Cas9 cells were transduced with eIF2αK1 gRNA #3, eIF2αK1 gRNA #5, a gRNA targeting BCL11A exon 2, or a negative control gRNA. The cells were then incubated with or without pomalidomide. […] Indeed, the results with pomalidomide in combination with eIF2αK1 inhibition were very strong in three independent experiments, even stronger than those observed with Bcl11A inhibition and pomalidomide.

Compound | number of HbF positive cells
Nc1cccc2c1C(=O)N(C1CCC(=O)NC1=O)C2=O (stereo not drawn) [pomalidomide] | greatly increased
